According to patent publication US8883841B2, “Oncogenic ras-specific cytotoxic compound and methods of use thereof” (The Board of Regents of the University of Texas System, priority 2005, dated 2014):

Tests used:
T29Kt1 cells = assay: cells; conditions: Homo sapiens, T29Kt1, read-out: IC50 in T29k cells, Table 1
[1] = system: H460 cells transfected with Raf-1 constructs; assay: SRB cell viability of H460 cells stably transfected with Raf-1 plasmids; assay type: cell-based, human; conditions: vs parental H460
Experimental: FIGS. 10A-10D Effect of Oncrasin-1 on Raf-1 expression. (FIG. 10A) H460 cells were treated with various concentrations of Oncrasin-1 and harvested 24 h later for Western blot analysis. (FIG. 10B) Reverse transcriptase-based polymerase chain reaction (RT-PCR) assay. H460 cells treated with 1 μM Oncrasin-1 for various times or at various concentrations for 24 h, as indicated. (+, −, positive and negative controls). […] (FIG. 10D) Dose effects of Oncrasin-1 on stable cell lines transfected with Raf-1 plasmids. Parental H460 cells and H460 cells transfected with wild-type Raf-1 (Raf-1), constitutive Raf-1 (Raf-1C), or dominant-negative Raf-1 Raf-1/DN) were treated with various concentrations of Oncrasin-1, and cell viability was determined by SRB assay.
Suppression of Raf-1 expression by Oncrasin-1. […] To elucidate the roles of Raf-1 in Oncrasin-induced apoptosis, the inventors evaluated the expression of Raf-1 in H460 cells after treatment with different concentrations of Oncrasin-1. […] Because Raf-1 executes anti-apoptosis function via a variety of pathways. […] However, the resistance to Oncrasin-1 was more prominent in the constitutively active Raf-1-transfected cells than in cells with the wild-type Raf-1 (FIG. 10C and FIG. 10D).

[2] = system: TNFα-induced NFκB activation; assay: NFκB reporter plasmid (pNFκB-Luc) luciferase assay in T29Kt1 cells; assay type: cell-based, human; conditions: 10 μM, TNFα 1 ng/ml, 8 h
Experimental: FIGS. 11A-11C Suppression of TNFα-induced NFκB activation. NKκB reporter plasmid assay. T29K cells were transfected with pNFκB-Luc and pCMV-lacZ. 12 h later, the cells were treated with TNFα (1 ng/ml) with or without (FIG. 11A) Oncrasin-1 (10 μM) or (FIG. 11B) Sulindac (10 μm). The luciferase activity was determined at 8 h after the treatment and normalized with beta-gal activity. (FIG. 11C) H460 and T29K cells were treated with DMSO or different concentrations of Oncrasin-1 as indicated for 12 h, with or without TNFα (1 ng/ml). The NFκB activity was analyzed by EMSA.
Suppression of NFκB. In a separated study, the effect of Oncrasin compounds on NF-κB activity was assessed. Nuclear factor-κB (NF-κB)/Rel represents a group of structurally related and evolutionarily conserved transcriptional factors that play critical roles in chronic and acute inflammatory diseases, autoimmune diseases and various type of cancers (Karin and Neriah, 2000; Karin and Karin, 2006; Barnes et al., 1997). In unstimulated cells, most NF-κB/Rel dimers are bound to IκBs and retained in the cytoplasm. Upon a various stimulations, IκBs are phosphorylated and rapidly degraded, releasing NF-κB, which then enters the nucleus and executes transcriptional functions. […] The luciferase activity was determined and normalized for transfection with beta-galactosidase activity. […]

Structure (SMILES)	IC50 (T29Kt1 cells) [µM]	susceptibility of H460 cells transfected with dominant-negative Raf-1 [1]	susceptibility of H460 cells transfected with wild-type or constitutively active Raf-1 [1]	suppression of TNFα-induced NFκB activation (luciferase) [2]
OCc1cn(Cc2ccc(Cl)cc2)c2ccccc12 [Oncrasin K060, 1H-Indole-3-methanol, 1-[(4-chlorophenyl)methyl]-]	0.0794	–	–	–
O=Cc1cn(Cc2ccc(Cl)cc2)c2ccccc12 [Oncrasin K001, 1H-Indole-3-carboxaldehyde, 1-[(4-chlorophenyl)methyl]-(9CI)]	–	more sensitive	less susceptible than parental H460 cells	more active than Sulindac
